Laboratory results taken from PMC10709007, “GPR162 is a beta cell CART receptor” (iScience, 2023).
“Also recorded” adds a separate entry of the source. *1 amine or outer side, *2 acyl side, *3 side chain or, on linkers, in order; H or OH if unused. Where a SMILES comes first, the peptide text is derived from it. Bridges are numbered along the chain shown (N, C = ends). Roman numbers before positions name the chains, in order. Where no end group is shown, it is not given here. [ ]: non-standard residue; d: D form. Actinocin(9to1) = Cc1c2oc3c(C)ccc(C(=O)[*:1])c3nc-2c(C(=O)[*:2])c(N)c1=O; NMeV = CN[C@H](C(=O)O)C(C)C; Sar = CNCC(=O)O

Legend:
[1] = test system: Gpr162 mRNA; set-up: method as in PMID 24937127; conditions: streptozotocin-treated rats; cited from earlier work
[2] = test system: PC12 cells; set-up: method as in PMID 21855138; conditions: cited from earlier work
Excerpt: However, much earlier, a fragment of the CART peptide was identified in extracts of sheep hypothalamus.[2] CART was later found to be expressed also in pancreatic islet cells and in nerve fibers innervating the islets.[3]^,[4]^,[5] […] Among them is the effect of CART on islet hormone secretion fr ...

[3] = test system: KATO III cells; conditions: KATOIII cells; cited from earlier work
Excerpt: When studying neuropathic pain, Yosten et al.[11] found GPR160 to be necessary for CARTp-mediated cell activation in cell culture. […] Information on GPR160 is scarce, but it has been reported to be a potential marker for prostate cancer,[24] where it is involved in apoptosis and cell-cycle arrest.[25] […] Recently, the notion of GPR160 being the ...

[4] = test system: CART receptor; conditions: cited from earlier work
Excerpt: However, much earlier, a fragment of the CART peptide was identified in extracts of sheep hypothalamus.[2] CART was later found to be expressed also in pancreatic islet cells and in nerve fibers innervating the islets.[3]^,[4]^,[5] […] Since then, multiple biological effects of CART have been established.[4]^,[7] Among them is the effect of CART on islet hormone secretion fr ...

[5] = test system: INS-1 832/13 cells; test: Radioactive binding of 125I-CARTp55-102 to INS-1 832/13 cells; set-up: species or system rat
Procedure: ^125I was incorporated into the meta-position of tyrosine side chains of CARTp55-102 using oxidative iodination. 20 μL of a 300 mM phosphate buffer (pH 7.4) was used to resuspend 1 nmol of the CARTp55-102 peptide, after which 0.4 mCi ^125I (NEZ033A, PerkinElmer, Waltham, MA) was added. A volume of 30 μL 3 mg/mL Chloramine-T in phosphate buffer was added gradually while stirring over 6 min, and the reaction was quenched by adding 400 μL H2O with 0.1% trifluoroacetic acid (TFA). The radiolabeled peptide was purified by reversed-phase HPLC on a C18 column and […]. Elution fractions of 1 mL were collected and it was determined where the radiolabeled peptide eluted by measuring γ radiation intensity on a PerkinElmer 2470 Automatic Gamma Counter (PerkinElmer).
INS-1 cells were seeded to 24-well plates and transfected with Gpr162 siRNA (or control siRNA). Two days after transfection cells were assayed for competition binding for 3 h at 4°C using 10–15 p.m. ^125I CARTp55-102 or unlabeled CARTp55-102 in 0.4 mL of 50 mM HEPES buffer (pH7.4 supplemented with 1 mM CaCl2, 5 mM MgCl2 and 0.5% (w/v) bovine serum albumin). After incubation cells were washed two times in binding buffer supplemented with 0.5 M NaCl at 4°C. Non-specific binding was determined as the binding in the presence of 0.1μM unlabeled CARTp55-102.

## CN(N=O)C(=O)N[C@H]1C(O)O[C@H](CO)[C@@H](O)[C@@H]1O (mixture of isomers) [streptozotocin]
[1]
  Gpr162 mRNA expression, brain: increased
  Gpr162 mRNA expression, right ventricle of the heart and kidney: reduced Gpr162 mRNA expression

## Cc1c2oc3c(C)ccc(C(=O)N[C@@H]4C(=O)N[C@H](C(C)C)C(=O)N5CCC[C@H]5C(=O)N(C)CC(=O)N(C)[C@@H](C(C)C)C(=O)O[C@@H]4C)c3nc-2c(C(=O)N[C@@H]2C(=O)N[C@H](C(C)C)C(=O)N3CCC[C@H]3C(=O)N(C)CC(=O)N(C)[C@@H](C(C)C)C(=O)O[C@@H]2C)c(N)c1=O [actinomycin D] (I: T[dV]P[Sar][NMeV] / II: T[dV]P[Sar][NMeV]; ester I:1-I:C, II:1-II:C; linker I:N-II:N via Actinocin(9to1))
[2]
  Effect on (radiolabeled) CART binding: inhibited

## C[C@@H]1C[C@@H]([C@H](O)CC2CC(=O)NC(=O)C2)C(=O)[C@@H](C)C1 [cycloheximide]
[2]
  Effect on (radiolabeled) CART binding: inhibited

## C-peptide
[3]
  Effect of GPR160 on C-peptide-induced cFOS expression: GPR160 has no effect on C-peptide-induced cFOS expression

## PACAP6-38: CART receptor antagonist (FTDSYSRYRKQMAVKKYLAAVLGKRYKQRVKNK; ends and bridges not checked; UniProt P18509 137-169, looked up, fragment)
[4]
  CART receptor antagonism: acts as a CART receptor antagonist

## ^125I-CARTp55-102: ^125I was incorporated into the meta-position of tyrosine side chains of CARTp55-102 using oxidative iodination (IPIYEKKYGQVPMCDAGEQCAVRKGARIGKLCDCPRGTSCNSFLLKCL; ends and bridges not checked; also: 125I in meta-position of tyrosine side chains)
[5]; Gpr162 KD vs negative control, 3 h at 4°C, 2 days after transfection, n = 3, p < 0.05
  Binding of 125I-CARTp55-102 after Gpr162 siRNA/KD: binds to a lower extent to Gpr162 KD INS-1 832/13 cells; also recorded: the degree of binding was lower in cells treated with Gpr162 siRNA
[5]; competition binding 3 h at 4°C, 50 mM HEPES pH7.4, non-specific with 0.1μM unlabeled CARTp55-102, n = 3
  Binding of 125I-CARTp55-102 to cells: binds to INS-1 832/13 cells

## pertussis toxin
[4]
  CARTp-mediated phosphorylation of ERK: inhibited

## radiolabeled CART peptide: radiolabeled CART of cited earlier studies in AtT20 and PC12 cells (IPIYEKKYGQVPMCDAGEQCAVRKGARIGKLCDCPRGTSCNSFLLKCL; ends and bridges not checked; also: 125I in meta-position of tyrosine side chains)
[2]
  Specific binding in PC12 cells: high-affinity-specific binding in PC12 cells
